Here are results for five molecules from US6624160B2, “4-oxo-1,4-dihydro-3-cinnolinecarboxamides as antiviral agents” (Pharmacia & Upjohn Co., priority 2000, dated 2003).

As a reminder, the IC50 is the midpoint of a concentration-inhibition curve. Read a high IC50 as a need for much substance. The melting point is the temperature, or range, at which the solid turns liquid.

One data set addresses T1, HCMV polymerase (Human cytomegalovirus, UniProt P08546).
T1 construct: made in house; host or cells: recombinant baculovirus-infected SF-9 cells
The data set can be described thus: HCMV polymerase assay (scintillation proximity assay, modified version). Format: biochemical. The settings on record: modified SPA assay; compounds diluted in 100% DMSO; 4.5 mM DTT. On the procedure: The HCMV polymerase assay is performed using a scintillation proximity assay (SPA) as described in several references, such as N. D. Cook, et al., Pharmaceutical Manufacturing International, pages 49-53 (1992); K. Takeuchi, Laboratory Practice, September issue (1992); U.S. Pat. No. 4,568,649 (1986); which are incorporated by reference herein. Reactions are performed in 96-well plates. The assay is conducted in 100 μl volume with 5.4 mM HEPES (pH 7.5), 11.7 mM KCl, 4.5 mM MgCl2, 0.36 mg/ml BSA, and 90 nM ^3H-dTTP. Assays are run with and without CHAPS, (3-[(3-cholamidopropyl)-dimethylammonio]-1-propane-sulfonate) at a final concentration of 2 mM. HCMV polymerase is diluted in enzyme dilution buffer containing 50% glycerol, 250 mM NaCl, 10 mM HEPES (pH 7.5), 100 μg/ml BSA, and 0.01% sodium azide. The HCMV polymerase, which is expressed in recombinant baculovirus-infected SF-9 cells and purified according to literature procedures, is added at 10% (or 10 μl) of the final reaction volume, i.e., 100 μl. Compounds are diluted in 50% DMSO and 10 μl are added to each well. Control wells contain an equivalent concentration of DMSO. Unless noted otherwise, reactions are initiated via the addition of 6 nM biotinylated poly(dA)-oligo(dT) template/primer to reaction mixtures containing the enzyme, substrate, and compounds of interest. Plates are incubated in a 25° C. or 37° C. H2O bath and terminated via the addition of 40 μl/reaction of 0.5 M EDTA (pH 8) per well. Reactions are terminated within the time-frame during which substrate incorporation is linear and varied depending upon the enzyme and conditions used, i.e., 30 min. for HCMV polymerase. Ten μl of streptavidin-SPA beads (20 mg/ml in PBS/10% glycerol) are added following termination of the reaction. Plates are incubated 10 min. at 37° C., then equilibrated to room temperature, and counted on a Packard Topcount. Linear regressions are performed and IC50's are calculated using computer software.
A modified version of the above HCMV polymerase assay is performed as described above, but with the following changes: Compounds are diluted in 100% DMSO until final dilution into assay buffer. In the previous assay, compounds are diluted in 50% DMSO. 4.5 mM dithiotherotol (DTT) is added to the polymerase buffer. […] All results are listed as Polymerase IC50 (μM) values. In Table 1, the term “nd” refers to activity data not determined.
In general terms: Scintillation proximity formats need no separation of bound from free tracer.

Another data set deals with HSV polymerase (Human herpesvirus 1, UniProt P04293). The data set can be described thus: HSV polymerase assay (Table 1). It is filed as biochemical.
Chain of HSV polymerase (P04293 whole entry): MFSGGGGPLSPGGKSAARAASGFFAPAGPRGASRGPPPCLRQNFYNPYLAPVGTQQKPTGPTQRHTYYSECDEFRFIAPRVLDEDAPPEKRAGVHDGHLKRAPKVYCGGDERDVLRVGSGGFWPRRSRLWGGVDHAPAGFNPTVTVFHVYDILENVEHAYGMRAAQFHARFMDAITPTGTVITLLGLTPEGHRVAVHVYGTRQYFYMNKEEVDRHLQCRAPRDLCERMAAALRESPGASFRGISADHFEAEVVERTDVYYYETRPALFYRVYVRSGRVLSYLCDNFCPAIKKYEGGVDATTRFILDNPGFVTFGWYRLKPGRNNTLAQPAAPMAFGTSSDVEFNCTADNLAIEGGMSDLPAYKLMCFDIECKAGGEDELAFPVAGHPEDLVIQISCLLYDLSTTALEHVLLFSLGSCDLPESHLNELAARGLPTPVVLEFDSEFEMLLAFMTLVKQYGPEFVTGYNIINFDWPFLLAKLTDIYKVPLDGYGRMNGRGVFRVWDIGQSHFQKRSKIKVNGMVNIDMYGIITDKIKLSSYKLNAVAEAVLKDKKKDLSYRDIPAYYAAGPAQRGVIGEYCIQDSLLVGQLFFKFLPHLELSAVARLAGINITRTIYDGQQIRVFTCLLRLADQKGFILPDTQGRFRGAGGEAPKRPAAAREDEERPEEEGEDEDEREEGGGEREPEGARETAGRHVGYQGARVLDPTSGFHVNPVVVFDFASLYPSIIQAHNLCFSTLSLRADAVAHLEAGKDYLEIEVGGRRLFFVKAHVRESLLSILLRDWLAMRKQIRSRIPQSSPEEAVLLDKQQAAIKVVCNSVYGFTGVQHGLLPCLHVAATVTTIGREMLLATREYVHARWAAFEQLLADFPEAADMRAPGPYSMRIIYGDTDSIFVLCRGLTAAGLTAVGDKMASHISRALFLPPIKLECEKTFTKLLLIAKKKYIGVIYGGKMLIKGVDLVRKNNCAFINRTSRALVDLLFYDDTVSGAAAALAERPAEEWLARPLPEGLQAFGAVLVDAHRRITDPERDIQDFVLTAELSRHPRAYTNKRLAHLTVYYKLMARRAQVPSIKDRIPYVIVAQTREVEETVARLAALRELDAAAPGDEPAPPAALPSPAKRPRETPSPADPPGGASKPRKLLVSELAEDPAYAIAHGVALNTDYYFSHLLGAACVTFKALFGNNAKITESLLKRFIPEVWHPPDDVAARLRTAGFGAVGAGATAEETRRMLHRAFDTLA
Another data set deals with VZV polymerase (Varicella-zoster virus, UniProt P09252). The experiment in a line: VZV polymerase assay (Table 1). Format: biochemical.
Chain of VZV polymerase (P09252 whole entry): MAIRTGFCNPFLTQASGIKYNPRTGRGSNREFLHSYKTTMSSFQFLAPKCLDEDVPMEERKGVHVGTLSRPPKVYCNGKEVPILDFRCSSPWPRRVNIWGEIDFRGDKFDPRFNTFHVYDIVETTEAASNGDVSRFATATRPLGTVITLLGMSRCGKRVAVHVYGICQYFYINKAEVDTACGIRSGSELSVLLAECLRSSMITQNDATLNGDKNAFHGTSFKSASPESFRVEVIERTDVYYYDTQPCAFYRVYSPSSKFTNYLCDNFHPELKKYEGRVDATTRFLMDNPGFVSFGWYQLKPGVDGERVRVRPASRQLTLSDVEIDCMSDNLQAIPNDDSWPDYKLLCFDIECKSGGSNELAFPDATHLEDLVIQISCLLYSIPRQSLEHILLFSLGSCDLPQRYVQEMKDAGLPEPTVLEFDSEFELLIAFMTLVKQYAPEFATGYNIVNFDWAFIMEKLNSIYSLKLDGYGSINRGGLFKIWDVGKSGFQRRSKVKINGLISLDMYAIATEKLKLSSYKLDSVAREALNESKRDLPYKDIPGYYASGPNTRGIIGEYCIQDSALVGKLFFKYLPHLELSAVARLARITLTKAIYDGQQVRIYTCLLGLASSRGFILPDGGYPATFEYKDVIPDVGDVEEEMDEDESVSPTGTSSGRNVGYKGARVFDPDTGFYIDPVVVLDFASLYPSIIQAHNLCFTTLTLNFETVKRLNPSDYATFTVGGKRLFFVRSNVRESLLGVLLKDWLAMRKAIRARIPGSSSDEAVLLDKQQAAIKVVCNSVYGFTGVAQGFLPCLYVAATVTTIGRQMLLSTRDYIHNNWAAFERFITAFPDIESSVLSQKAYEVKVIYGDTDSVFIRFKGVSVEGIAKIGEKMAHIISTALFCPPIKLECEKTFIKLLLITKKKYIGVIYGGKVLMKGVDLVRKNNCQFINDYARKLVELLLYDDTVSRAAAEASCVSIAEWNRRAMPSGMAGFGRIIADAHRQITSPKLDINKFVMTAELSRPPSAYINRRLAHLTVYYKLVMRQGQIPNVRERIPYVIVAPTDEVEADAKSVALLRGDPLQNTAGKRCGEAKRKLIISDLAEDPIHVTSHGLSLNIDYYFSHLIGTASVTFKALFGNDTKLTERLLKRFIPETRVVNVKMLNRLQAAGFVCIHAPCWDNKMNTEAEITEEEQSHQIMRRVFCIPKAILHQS

Structures are written as SMILES.

T1 sequence (P08546 whole entry): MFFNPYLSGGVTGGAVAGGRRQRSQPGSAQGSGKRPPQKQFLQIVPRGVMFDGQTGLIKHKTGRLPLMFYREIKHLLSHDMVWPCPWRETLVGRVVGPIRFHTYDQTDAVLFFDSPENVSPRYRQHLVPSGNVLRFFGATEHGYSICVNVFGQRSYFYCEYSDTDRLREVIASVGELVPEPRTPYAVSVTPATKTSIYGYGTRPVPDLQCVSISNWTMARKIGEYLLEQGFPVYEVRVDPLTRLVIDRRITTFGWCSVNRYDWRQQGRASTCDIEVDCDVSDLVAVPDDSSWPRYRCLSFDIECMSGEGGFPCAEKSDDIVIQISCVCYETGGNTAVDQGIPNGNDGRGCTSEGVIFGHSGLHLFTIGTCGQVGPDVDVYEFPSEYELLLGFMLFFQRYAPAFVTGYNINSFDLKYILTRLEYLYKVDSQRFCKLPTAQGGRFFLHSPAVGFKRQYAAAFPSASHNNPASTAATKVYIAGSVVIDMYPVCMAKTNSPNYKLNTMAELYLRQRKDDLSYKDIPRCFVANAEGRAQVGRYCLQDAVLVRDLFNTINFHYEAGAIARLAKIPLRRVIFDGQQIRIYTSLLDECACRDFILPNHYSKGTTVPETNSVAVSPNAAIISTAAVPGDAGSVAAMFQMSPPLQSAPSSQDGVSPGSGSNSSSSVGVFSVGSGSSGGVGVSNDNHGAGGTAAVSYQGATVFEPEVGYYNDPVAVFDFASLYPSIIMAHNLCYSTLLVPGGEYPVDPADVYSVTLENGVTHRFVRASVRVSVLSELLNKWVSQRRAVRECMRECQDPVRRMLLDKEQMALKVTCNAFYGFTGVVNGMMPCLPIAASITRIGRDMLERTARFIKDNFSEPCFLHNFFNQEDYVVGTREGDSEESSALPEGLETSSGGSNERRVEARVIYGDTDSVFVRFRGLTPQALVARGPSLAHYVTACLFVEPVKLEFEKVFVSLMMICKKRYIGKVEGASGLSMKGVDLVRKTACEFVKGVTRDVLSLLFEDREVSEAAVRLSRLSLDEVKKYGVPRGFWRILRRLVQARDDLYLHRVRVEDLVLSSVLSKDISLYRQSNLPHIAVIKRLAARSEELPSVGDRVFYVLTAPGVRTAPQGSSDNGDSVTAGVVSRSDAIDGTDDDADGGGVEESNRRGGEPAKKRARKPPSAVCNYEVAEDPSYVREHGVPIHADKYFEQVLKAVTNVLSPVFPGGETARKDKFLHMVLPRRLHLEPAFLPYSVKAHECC

For the molecule `Cn1nc(C(=O)NCc2ccc(Cl)cc2)c(=O)c2cc(CO)ccc21` [Example 4, N-(4-chlorobenzyl)-6-(hydroxymethyl)-1-methyl-4-oxo-1,4-dihydro-3-cinnolinecarboxamide], the melting point was 203 to 205 °C. In addition, 16.7 µM corresponded to half-maximal inhibition against HCMV polymerase (IC50).

With `Cn1nc(C(=O)NCc2ccc(Cl)cc2)c(=O)c2cc(CN3CCOCC3)ccc21` [Example 5, N-(4-chlorobenzyl)-1-methyl-6-(4-morpholinylmethyl)-4-oxo-1,4-dihydro-3-cinnolinecarboxamide], the melting point was in the range of 190 to 192 °C. Moreover, inhibition at HCMV polymerase was half-maximal at 1.2 µM (IC50).

`Cn1nc(C(=O)NCc2ccc(Cl)cc2)c(=O)c2cc(C#CCCO)ccc21` [Example 3, N-(4-chlorobenzyl)-6-(4-hydroxy-1-butynyl)-1-methyl-4-oxo-1,4-dihydro-3-cinnolinecarboxamide] returned a melting point of 227 to 229 °C. Further, at HCMV polymerase, half-maximal inhibition (IC50) required 9.8 µM.

In the case of `Cn1nc(C(=O)NCc2ccc(Cl)cc2)c(=O)c2cc(I)ccc21` [Example 1, N-(4-chlorobenzyl)-6-iodo-1-methyl-4-oxo-1,4-dihydro-3-cinnolinecarboxamide], the melting point was in the range of 194 to 195 °C. Moreover, half-maximal inhibition against HCMV polymerase (IC50) was put at 5.5 µM.

Take `Cn1nc(C(=O)NCc2ccc(Cl)cc2)c(=O)c2cc(C#CCO)ccc21` [Example 2, N-(4-chlorobenzyl)-6-(3-hydroxy-1-propynyl)-1-methyl-4-oxo-1,4-dihydro-3-cinnolinecarboxamide]: the melting point lay in the range of 229 to 231 °C. Besides, the IC50 on HCMV polymerase was 2.7 µM. For the same molecule, on HSV polymerase, the IC50 worked out at 1.7 µM. This molecule registered an IC50 against VZV polymerase of 1.1 µM.
